Where two headings read alike, the source gives them in different places.
Tests used:
[1] = test system: human cervical cancer Hela cell strains; experiment: MTT growth inhibition on Hela;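 note: compound exposure of 24, 48 or 72 h in DMEM with 10% fetal bovine serum, MTT absorbance read at 490 nm, inhibition calculated relative to control group OD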
Procedure: (§5) By using an MTT method, a sample solution to be tested was added to a 96-well plate in which cancer cells were adherently grown. Culturing was performed for a certain period, and the growth inhibition effect of a compound on a human cancer cell strain for primary screening was measured to determine the anti-cancer activity of the compound.
(§6) Cell culture: A cell incubator was set to conditions of 37° C., 5% CO2, and a saturated humidity, cells were cultured under these conditions, and the cell medium was a DMEM complete medium, wherein 10% fetal bovine serum, 100 IU/mL penicillin, and 100 μg/mL streptomycin were comprised.
(§7) The single cell suspension was diluted to 5×10^3/100 μL after counting, inoculated on a 96-well cell culture plate (triplicate), and adherently cultured overnight;
(§8) After 24 h of adhesion, the complete medium was discarded, 100 μL-sample-solutions to be tested having different concentrations were sequentially added to the 96-well plate according to a concentration gradient, and incubations were continued for 24 h, 48 h, and 72 h;
(§9) The culture liquid was discarded, a 0.5 mg/mL MTT diluted working liquid was added, and incubation was performed for 4 h by placing in an incubator;
(§10) The culture liquid was discarded, 100 μL of DMSO was added, low-speed oscillation was performed for 10 min by placing on a shaker, and the spectrophotometric value of each well was measured at a wavelength of 490 nm by using a microplate reader. Statistical analysis was performed and tumor cell growth inhibition rate was calculated according to the equation: Growth inhibition rate=(OD value of control group−OD value of experimental group)/OD value of control group.
(§11) Culturing was performed for a certain period, the growth inhibition effect of a compound on 3 human cancer cell strains for primary screening was measured to determine the anti-cancer activity of the compound, and a growth inhibition curve was plotted.

[2] = test system: human liver cancer cell strain HepG2; experiment: MTT growth inhibition on HepG2; format: cell-based; conditions: read-out: IC50 HepG2;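 note: adherent cells in 96-well plates treated with a concentration series for 24, 48 or 72 h, MTT absorbance read at 490 nm, inhibition computed relative to untreated control wells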
Procedure: as §5, §6, §7, §8, §9, §10, §11

various HCC = conditions: background; read-out: IC50 values, inhibition of tumor growth of various HCC; cited from earlier work
[3] = test system: human gastric cancer cell strain MGC-803; experiment: MTT growth inhibition on MGC-803;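 note: adherent cells exposed to compound over a concentration gradient for 24, 48 and 72 h, MTT absorbance at 490 nm, inhibition relative to untreated control wells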
Procedure: as §5, §6, §7, §8, §9, §10, §11

[4] = background; cited from earlier work
[5] = test system: C-Myc, Ki-67, CylinD1, β-Catenin protein; experiment: Western blotting, protein expression in HepG2 cells; format: cell-based, human; conditions: sorafenib 4 μg/mL
Procedure: (§1) Method: Gel electrophoresis of protein samples. Gel formulation: All components were added to a small beaker according to a formulation of a separation gel, uniformly mixed with slightly shaking to prevent the generation of bubbles, quickly applied to a seam of a glass plate with a 1 mL pipette, and then blocked with double distilled water to prevent oxidation. After 30 min, the separation gel solidified, the double distilled water thereof was poured off, waster was suctioned with a filter paper, a 5% concentration gel was formulated, TEMED was finally loaded onto the glass plate, and a 1.0 mm comb was inserted into the concentration gel and placed at room temperature for 30 min. The comb was slightly, vertically, and carefully pulled up, various groups of 20 μL protein samples were pipetted with a microsyringe, an equal volume of a loading buffer and an equal volume of a loading buffer containing 3 μL of Marker were separately added to a loading well, an electrophoresis instrument was switched on after electrodes were plugged, gels were run at 75V for 30 min, and the voltage was changed to 120V and gels were run for 2 h when bromophenol blue reaches the separation gel. Membrane transfer: A PVDF membrane having a suitable size was cut according to the size of the gel, placed in a methanol solution for 1 min, lifted, and placed and soaked together with a well cut filter paper in a previously precooled membrane transfer buffer. A sponge pad, three layers of filter paper, a gel, three layers of filter paper, and a sponge pad, in this order from top to bottom, were placed in a membrane transfer tank, and a precooled membrane transfer buffer was then added. Several ice bags were placed circumferentially to prevent an excessively hot external environment, and electrodes were plugged and membrane transfer was performed at a constant current of […] for 2.5 hours. Blocking and incubation of antibodies: A transferred membrane was cut into desired bands, which were placed in a blocking solution of 5% skim milk powder, placed on a shaker, and shaken at room temperature at a low speed for 1 h. A primary antibody was diluted with the blocking solution, a corresponding antibody was pipetted and added to a zip lock bag, the PVDF membrane was then placed in the antibody dilution, bubbles in the zip lock bag were evacuated, and the zip lock bag was sealed and placed in a refrigerator at 4° C. overnight. The membrane was withdrawn from the zip lock bag on the second day, and placed in a clean dish. A TBST solution was added and washed 3 times on a low-speed shaker, 10 min for each time. […]

HepG2 cells [6] = experiment: Apoptosis induction, Annexin V and PI double-staining, flow cytometry; format: cell-based, human; conditions: HepG2, 24 h; sorafenib 4 μg/mL; combination 4 μg/mL sorafenib+5 μg/mL FICD
Procedure: Different concentrations of FICD were added on the second day, culture was continued for 24 h, cells were collected and washed 3 times with precooled PBS, and adherent cells were digested with trypsin free of EDTA. The solutions were combined, centrifuged, and washed 3 times again with precooled PBS. 400 μL of solution containing 5 μL of V-FITC and 10 μL of PI was added, incubation was performed at room temperature under protection from light, and detection was performed by flowcytometry after 30 min.

HepG2 cells [7] = experiment: Cell cycle distribution by flow cytometry; format: cell-based, human; conditions: sorafenib 5 μg/mL, FICD 10 μg/mL, combination 5 μg/mL FICD+10 μg/mL sorafenib
Procedure: 1 mL of 70% precooled (−20° C.) ethanol was added to the cell precipitate, homogenized by pipetting, and fixed at 4° C. overnight. On the second day, HepG2 cells was collected by centrifugation, 2 mL of precooled PBS was added for washing 3 times, 500 μL of PBS containing 50 μg/mL […] (PI) and 100 μg/mL RNaseA was added, and incubation was performed at 4° C. under protection from light for 30 min. Detection was performed on a flow cytometer, and results can be seen in FIG. 9 and FIG. 10.

[8] = test system: hepatocellular carcinoma in late stages; conditions: background; cited from earlier work
HepG2 cells [9] = experiment: Apoptosis induction by laser confocal scanning microscope; format: cell-based, human; conditions: HepG2, 48 h
Procedure: Two solutions (a former one and a later one) were mixed, centrifugation was performed at 1000 r/min for 5 min, the supernatant was discarded, and washing was performed for 3 times with PBS. The cell precipitate was resuspended in Binding Buffer, 10 μL of a FITC-Annen V staining liquid was added, homogenized by pipetting slightly, and reaction was performed under protection from light. PI was added for staining for 15 min, centrifugation was performed, the supernatant was discarded, and washing was performed for 3 times again with PBS. A glass slide was loaded by applying the cell precipitate thereto and mounted with non-fluorescent buffering glycerol, a laser confocal scanning microscope was immediately used for observation and taking photographs at wavelengths of 488 nm and 560 nm. Meanwhile, cells without AnneixnV-FITC and PI added were used as a negative control.

[10] = test system: ascites hepatoma H22 induced solid tumor; experiment: In vivo tumor growth inhibition in mice bearing H22; parameters: species or system white Kunming mice; conditions: sorafenib 50 mg/Kg
Excerpt: 1. Tumor strain and animal for experiments: H22 liver cancer cell strain was provided by Teaching and Research Office, School of Basic Medical Sciences, Lanzhou University/Key Lab of Preclinical Study for New Drugs of Gansu Province, and was passage and preserved by periodically intraperitoneal inoculation. White Kunming mice (18.0-22.0 g) were provided by Lanzhou Veterinary Institute, Chinese Academy of Agriculture.
(§2) 2. Establishment of tumor models and method of grouping: a third passage of mice which were well grown 7 d after intraperitoneal inoculation of H22 tumor cells were sacrificed by cervical dislocation, and placed and soaked in 75% alcohol for 10 min. After 3 mL of sterile physiological saline was intraperitoneally injected, milky tumor cell ascites was withdrawn from the abdominal cavity, and formulated into a tumor cell suspension with sterile physiological saline, with a cell number of 1.5×10^7 mL^−1. 80 white Kunming mice were taken, and 0.2 mL of the tumor cell suspension was subcutaneously inoculated to the left axilla of each mouse. 24 h after the inoculation of tumor cells, the mice were divided into 8 groups according to body weights, 10 mice for each group. […] All of the administration manners were intraperitoneal administration.
(§3) 3. Result of experiments: On the second day of modeling, continuous administration was performed for 10 d. Administration was stopped on the 11th d, and mice were sacrificed by cervical dislocation on the next day.
Test method: For the test method, see Example 24. Results can be seen in FIG. 15, FIG. 16, and Table 5.
(§4) Method: Modeling was performed by using the method of establishing H22 white mice tumor-bearing model of Example 24. The in vivo tumor growth inhibition activity of COM33 on H22 model mice was measured in an intraperitoneal injection administration manner.

[11] = parameters: species or system white Kunming mice; conditions: mouse, in vivo
Procedure: as §2, §3, §4

Vimentin = experiment: Western blotting, Vimentin expression in HepG2 cells; format: cell-based, human
Procedure: as §1

Structure (SMILES): COc1ccc2c(c1O)-c1c(OC)c(OC)cc3c1[C@H](C2)N(C)CC3 [ICD, isocorydine]
- IC50 ([1]; Homo sapiens, HeLa, read-out: IC50 HeLa): 581 µM
- IC50 ([2]; Homo sapiens, HepG2, Table 2, MTT): 569 µM
- IC50 (various HCC): > 200 µM
- IC50 ([3]; Homo sapiens, MGC-803, read-out: IC50 MGC-803): 388 µM

Structure (SMILES): COc1cc(N)c2c(c1O)-c1c(OC)c(OC)cc3c1[C@H](C2)N(C)CC3 [NICD, 8-amino-isocorydine, reference compound]
- IC50 ([1]; read-out: IC50 Hela, Table 2, MTT): 44.1 µM
- stability on storage in an aqueous solution [4]: cannot be stored in an aqueous solution for a long period
- IC50 ([2]; Table 2, MTT): 51.1 µM
- IC50 ([3]; read-out: IC50 MGC-803, Table 2, MTT): 62.1 µM

Structure (SMILES): CNC(=O)c1cc(Oc2ccc(NC(=O)Nc3ccc(Cl)c(C(F)(F)F)c3)cc2)ccn1 [Sorafenib, reference compound]
- expressions of C-Myc, Ki-67, CylinD1 and β-Catenin protein compared to the blank control group ([5]; high COM33 dosage 10.0 μg/mL, combination 4 μg/mL sorafenib+5.0 μg/mL COM33): significantly reduced
- expressions of C-Myc, Ki-67, CylinD1 and β-Catenin protein compared to the blank group ([5]; high FICD dosage 20 μg/mL, combination 4 μg/mL sorafenib+10 μg/mL FICD): significantly reduced
- apoptosis rate (HepG2 cells [6]): 29.33%
- cell cycle distribution compared to the blank control group (HepG2 cells [7]): cells significantly increased in the G0/G1 phase of the cell cycle and significantly decreased in the S phase
- elongation of overall survival time of an HCC patient [8]: 2 months
- apoptosis and cell morphology, Anneixn V-FITC and PI double-staining (HepG2 cells [9]): apoptoses occurred during various phases
- Tumor inhibition rate (%) ([10]; Table 4, intraperitoneal, 10 d): 55.8%
- Tumor inhibition rate (%) ([10]; Table 6, intraperitoneal injection): 56.5%
- toxic and side effects on increased dosage [11]: toxic and side effects of sorafenib would obviously occur, resulting in death of experimental animals
- Vimentin expression (Vimentin; COM33 experiment (FIG. 17), combination compared to the sorafenib group): expressed in all groups
- Vimentin expression (Vimentin; FICD experiment (FIG. 12)): significantly increased
